{"source": "patent US20090175924A1", "about": "“COATED STENT” (BIONERIS AB, priority 2002, published 2009)", "key": {"[1]": {"test_system": "mice", "format": "in vivo", "details": "intravenous", "method": "A method described by S. Irwin (Psychopharmacologica, 1968, 13, 222) was used to detect general physiological, behavioural and toxic effects of a series of compounds. The tested compounds were administered intra veneously to mice (3 animals per compound and dose) and the behavioural modification and neurotoxicity symptoms such as mortality, sedation, excitation, aggressiveness, straub, writhes, convulsions, tremor, exophtalamos, salivation, lacrimation, piloerection, defecation, fear, traction, reactivity to touch, loss of righting reflex, sleep, motor incoordination, muscle tone, stereotypies, catalepsy, grasping, ptosis, difficulty in respiration, corneal reflex, analgesia and gait were recorded compared to a control group, Furthermore, rectal temperature and pupil diameter were recorded."}, "[2]": {"test_system": "Wistar rats", "assay": "Neointima formation after balloon catheter injury of the carotid artery in rats", "format": "in vivo, rat", "details": "for elasticity of the vessel walls (microscopic investigation): compared to the control group; for Neointima formation / Reduction (%) of neointima formation: rat carotid, 14 days post-operatively, 1 mg/kg/hr; for Neointima formation: subcutaneous osmotic minipumps; for Reduction (%) of neointima formation: versus saline control, osmotic minipumps", "method": "The effects on neointima formation was assessed after inducing vessel injury in rats with a balloon catheter. Neointima formation is an important part in the process of restenosis. Adult mate Wistar rats (250-260 g) were housed under standard conditions and were fed with commercial rat chow and water ad libitum. During the experiment D-myo-inositol-1,2,6-trisphosphate (IP3) was administered via subcutaneously operated osmotic minipumps with a dose level of 1 mg/kg/hr. A control group received saline solution by osmotic minipumps. The animals were anaesthetised with an intraperitoneal injection of ketamine, 100 mg/kg, (MTC Pharmaceuticals, Cambridge, Ontario, Canada) and xylazine, 10 mg/kg (Bayer Inc., Etobicoke, Ontario, Canada). Using a dissecting microscope, the left carotid artery was exposed on the ventral side of the neck via a midline incision. The bifurcation of the carotid artery was located and two ligatures were placed around the external carotid artery, which was then tied off with the distal ligature. After temporarily occluding the internal carotid artery with a vascular clamp, a small incision was made between the two ligatures placed around the external carotid artery to introduce the endothelial denudation device, an inflated […] Fogarty embolectomy catheter (Baxter Healthcare, Buckinghamshire, UK). Each animal was de-endothelialised by three passages of the catheter and the carotid artery was tied off proximal to the incision hole. The clamp was removed and the pulse of the carotid artery was rechecked. The skin incision was closed with a single suture. 14 days post-operatively, the animals were sedated. An abdominal incision was made to access the abdominal aorta for insertion of a cannula connected to a perfusion apparatus. The animals where killed by an overdose of anaestetic and then perfused with heparinised phosphate buffered saline (pH 7.4) at a rate of 100 ml/min per kg body weight and a pressure of 120 mm Hg. After replacement of saline, 4% paraformaldehyde in isotonic saline was introduced at the same flow rate. After fixation in situ, the carotids were dissected free. Three mid-carotid segments, approximately 10 mm long were rinsed and placed in 4% parafomaldehyde for another 16 hours before embedding and freezing in Tissue-Tek OCT media (Miles Inc., Elkhart, Ind., USA). Frozen sections were stained with Movat's pentachrome and immunohistochemistry was performed using antibodies in order to examine the process of restenosis by measurement of the neointima formation.\nIn a procedure similar to the one described in Example 3, D-3,4,5-tri-O-(phenylcarbamoyl)myo-inositol-1,2,6-trisphosphate (PP 11-201) was added with the result shown below: […]"}, "[3]": {"test_system": "Human pulmonary artery smooth muscle cells (HPASMCs)", "assay": "FGF2-stimulated proliferation of smooth muscle cells (3H-thymidine incorporation)", "format": "cell-based", "details": "1 nM FGF2, 24 hours", "method": "Vascular smooth muscle cell proliferation contributes to restenosis after coronary angioplasty. Human pulmonary artery smooth muscle cells (HPASMCs) were maintained in Medium 231 supplemented with Smooth muscle Growth Supplement. The cells, medium and supplement were obtained from Caascade Biologics Inc., Portland, Oreg., USA.\nThe cells were grown as monolayer culture in 100-mm diameter plastic tissue culture dishes (Nunc, Roskilde, Denmark) with 10 ml medium in 37° C. in a humidified atmosphere of 95% air and 5% CO2 and subcultured at 4- to 6-day intervals. For measurement of cell growth, cells were seeded at density 5.0*10^3/well in 96 well dishes in DMEM+0.2% FBS for 3 days. Culture medium was then removed and cells were seeded in DMEM+0.2% FBS with 1 nM of basic fibroblast growth factor (FGF2). The addition of FGF2 induces cell proliferation of the HPASMCs. The FGF2 used was a recombinant human substance from Boehringer Mannheim Biochemica, Espoo, Finland. Various concentrations of D-myo-inositol-1,2,6-trisphosphate (IP3) were added and the number of parallel wells in each treatment was four. The proliferation of cells was analysed after 24 hours of incubation by labelling each well with 0.2 μCi of ^3H-thymidine for two hours. After that the cells were trypsinated and harvested on a filter. A Melt-on scintillator (Meltilex™ A; Wallac, Turku, Finland) was allowed to melt on the filter. The radioactivity of the sheets was counted on a liquid scintillator counter (1450 Microbeta Wallac, Turku, Finland).\nStimulation of proliferation was inhibited by the addition of IP3 with the following result:\nIn a procedure similar to the one described in Example 1, D-3,4,5-tri-O-(phenylcarbamoyl) myo-inositol-1,2,6-trisphosphate (PP 11-201) was added with the result shown below: […]"}}, "data": [{"compound": "1,2-O-ethylene-β-D-fructopyranoside-2,3,4-trisphosphate", "values": [{"measurement": "Dose where effects are observed", "setting": "[1]", "value": ">512", "unit": "mg/kg"}]}, {"compound": "O=P(O)(O)OC1CN(CCc2ccccc2)CC(OP(=O)(O)O)C1OP(=O)(O)O", "note": "(centres unmarked) [1,5-dideoxy-1,5-imino-N-(2-phenylethyl)arabinitol-2,3,4-trisphosphate]", "values": [{"measurement": "Dose where effects are observed", "setting": "[1]", "value": ">512", "unit": "mg/kg"}]}, {"compound": "CCCCC(=O)OC1C(OC(=O)CCCC)C(OP(=O)(O)O)C(OP(=O)(O)O)C(OP(=O)(O)O)C1OC(=O)CCCC", "note": "[D-3,4,5-tri-O-pentanoyl-myo-inositol-1,2,6-trisphosphate]", "values": [{"measurement": "Dose where effects are observed", "setting": "[1]", "value": 128, "unit": "mg/kg"}]}, {"compound": "CCC(=O)OC1C(OC(=O)CC)C(OP(=O)(O)O)C(OP(=O)(O)O)C(OP(=O)(O)O)C1OC(=O)CC", "note": "[D-3,4,5-tri-O-propanoyl-myo-inositol-1,2,6-trisphosphate]", "values": [{"measurement": "Dose where effects are observed", "setting": "[1]", "value": 256, "unit": "mg/kg"}]}, {"compound": "O=C(O)CP(=O)(O)O[C@@H]1[C@H](OP(=O)(O)CC(=O)O)[C@H](O)[C@@H](O)[C@H](O)[C@H]1OP(=O)(O)CC(=O)O", "note": "[D-myo-inositol-1,2,6-tris(carboxymetylphosphonate)]", "values": [{"measurement": "Dose where effects are observed", "setting": "[1]", "value": ">512", "unit": "mg/kg"}]}, {"compound": "O=P(O)(O)O[C@@H]1[C@H](OP(=O)(O)O)[C@H](O)[C@@H](O)[C@H](O)[C@H]1OP(=O)(O)O", "note": "[IP3, D-myo-inositol-1,2,6-trisphosphate]", "values": [{"measurement": "Dose where effects are observed", "setting": "[1]", "value": ">512", "unit": "mg/kg"}, {"measurement": "elasticity of the vessel walls (microscopic investigation)", "setting": "[2]", "value": "improved"}, {"measurement": "Neointima formation", "setting": "[2]", "value": 0.48, "unit": "mm^2"}, {"measurement": "Reduction (%) of neointima formation", "setting": "[2]", "value": 57, "unit": "%"}, {"measurement": "inhibition (%) of FGF2-stimulated proliferation", "setting": "[3]; 1 μM", "value": 61, "unit": "%"}, {"measurement": "inhibition (%) of FGF2-stimulated proliferation", "setting": "[3]; 10 μM", "value": 44, "unit": "%"}, {"measurement": "inhibition (%) of FGF2-stimulated proliferation", "setting": "[3]; 100 μM", "value": 68, "unit": "%"}]}, {"compound": "O=C(Nc1ccccc1)O[C@@H]1[C@@H](OC(=O)Nc2ccccc2)[C@@H](OP(=O)(O)O)[C@@H](OP(=O)(O)O)[C@H](OP(=O)(O)O)[C@H]1OC(=O)Nc1ccccc1", "note": "[PP 11-201, D-3,4,5-tri-O-(phenylcarbamoyl)myo-inositol-1,2,6-trisphosphate]", "values": [{"measurement": "elasticity of the vessel walls (microscopic investigation)", "setting": "[2]", "value": "improved"}, {"measurement": "Neointima formation", "setting": "[2]", "value": 0.43, "unit": "mm^2"}, {"measurement": "Reduction (%) of neointima formation", "setting": "[2]", "value": 62, "unit": "%"}, {"measurement": "inhibition (%) of FGF2-stimulated proliferation", "setting": "[3]; 0.1 μM", "value": 49, "unit": "%"}, {"measurement": "inhibition (%) of FGF2-stimulated proliferation", "setting": "[3]; 1 μM", "value": 61, "unit": "%"}, {"measurement": "inhibition (%) of FGF2-stimulated proliferation", "setting": "[3]; 10 μM", "value": 70, "unit": "%"}]}, {"compound": "CCCCOC[C@H]1O[C@H](OC)[C@H](OP(=O)(O)O)[C@@H](OP(=O)(O)O)[C@@H]1OP(=O)(O)O", "note": "[methyl-6-O-butyl-α-D-glycopyranoside-2,3,4-trisphosphate]", "values": [{"measurement": "Dose where effects are observed", "setting": "[1]", "value": 256, "unit": "mg/kg"}]}, {"compound": "methyl-6-O-butyl-α-D-mannopyranoside-2,3,4-trisphosphate", "values": [{"measurement": "Dose where effects are observed", "setting": "[1]", "value": ">512", "unit": "mg/kg"}]}]}
